Data: patent US12409158B2, “Combination therapy for treating cancer” (GONGWIN BIOPHARM CO., LTD, priority 2022, dated 2025)

Key:
[1] = test system: TGF-β; assay: IHC analysis of TGF-β in M5 tumors; assay type: in vivo, BALB/c nude mice; settings: relative to the control group
Method: (§1) The mice were observed daily for clinical signs, weighed them every three days, and at one month after tumor-cell implantation euthanized them with an overdose of anesthetic combined with carbon dioxide. Immediately before sacrificing the mice, the blood was collected from them under anesthesia for hematological assessment. After euthanizing the mice, the tumors were excised immediately. The tumor specimens were divided into two groups. One group was treated with 10% formalin and embedded the specimens in paraffin. These specimens were investigated by hematoxylin and eosin staining; terminal deoxyribonucleotidyl transferase (TdT)-mediated biotin-16-dUTP nick-end labeling (TUNEL assay; APO-BrdU TUNEL Assay Kit, BD Pharmingen, San Diego, CA, USA); and IHC for IL-1β, TNF-α, TGF-β, and CD44, using primary antibodies against these factors (Merck, Billerica, MA, USA). Protein expression was assessed via IHC with the […] mouse/rabbit polymer detection system produced by BioTnA (Kaohsiung, Taiwan). A high-resolution digital microscope (Moticam 2300, Motic Instruments, Richmond, Canada) equipped with Motic Images Plus (version 2.0) was used to capture and analyze the images. The other groups of tumor specimens were first minced coarsely and homogenized, and then stored in a freezer at -80° C.

[2] = test system: M5 canine melanoma tumor; assay: M5 canine melanoma tumor growth in implanted mice; assay type: in vivo, BALB/cByJNarl mice; settings: cisplatin 2 mg/kg; for Tumor mass: after excision from sacrificed mice, IP three times per week, PTS 100 mg/kg, mean ± SD; for Tumor mass reduction (%): relative to the control, PTS 100 mg/kg IP three times per week
Method: Male BALB/cByJNarl mice at six-weeks of age were obtained from National Laboratory Animal Breeding and Research Center, Taipei, Taiwan. Two mice were housed in each cage and provided them with sterile food and water. The mice were maintained under a constant temperature (22±2° C.) and relative humidity (55±5%), with a 12:12 h light:dark cycle. The Institutional Animal Care and Use Committee (IACUC) at the National […] University (IACUC Approval No.110003) reviewed and approved the study protocol, in which procedures were in accordance with the Guidelines for the Care and Use of Laboratory Animals published by the Taiwanese Ministry of Health and Welfare. The M5 canine melanoma cell line was obtained from the School of Veterinary Medicine at National Taiwan University. The cells were cultured in a humidified atmosphere (95% air, 5% CO2) at 37° C. in 90% high-glucose Dulbecc's Modified Eagle Medium supplemented with 5% fetal bovine serum, 50 IU/ml of penicillin, and […] of streptomycin (Gibco Laboratories, Grand Island, NY, USA). The cells were routinely passaged by removing the medium and overlaying the cell monolayer with 0.25% trypsin and 0.1% ethylenediaminetetraacetic acid. The experimental treatments were commenced after the implanted M5 cells had formed a detectable tumor mass, which was assessed on day 7 after implantation. Briefly, the mice were anesthetized via intraperitoneal injection of Zoletil (Virbac Taiwan, Taipei, Taiwan), and then subcutaneously injected 100 μl of cell suspension containing 10^7 viable M5 cells into a posterior leg. […] All treatments were administered via intraperitoneal injection. The control group received saline daily, while the three treatment groups received their corresponding treatments three times per week. The cisplatin group received 2 mg/kg cisplatin (Sigma; St. Louis, MO, USA). The PTS group was administered with 100 mg/kg PTS (Gongwin Biopharm Holding, Taipei, Taiwan). The cisplatin+PTS group received 100 mg/kg PTS and 2 mg/kg cisplatin. The dosage of cisplatin was selected such that this drug affects apoptosis, invasion, metastasis, angiogenesis, and the growth signal mechanisms in canine melanoma implanted in mice. […] The growth of the tumors was assessed every seven days by measuring their largest and smallest diameters, and calculated their volume according to the following formula: […] The mice were observed daily for clinical signs, weighed them every three days, and at one month after tumor-cell implantation euthanized them with an overdose of anesthetic combined with carbon dioxide. […] Protein expression was assessed via IHC with the […] mouse/rabbit polymer detection system produced by BioTnA (Kaohsiung, Taiwan). […]

[3] = test system: IL-1β; assay: IHC analysis of IL-1β in M5 tumors; assay type: in vivo, BALB/c nude mice; settings: relative to the control group
Method: as §1

[4] = test system: IL-6; assay: ELISA of serum IL-6 in M5 tumor-bearing mice; assay type: in vivo, BALB/c nude mice; settings: relative to the control group
Method: The serum levels of IL-6 in the blood samples were measured using commercial mouse kits (ab213749 and ab100697; Abcam, Cambridge, MA, USA) according to the manufacturer's protocol. 50 μl of samples were added to each of the wells in 96-well antibody-coated plates and then incubated for 2 hours at room temperature. 50 μl of the detector antibody solution was loaded into each well and incubated the plates for a further 1 hour at room temperature. Next, […] of HRP-Streptavidin solution (ab210901, Abcam) was added to each well, and once again incubated the plates for 1 hour at room temperature. Finally, 100 μl of tetramethylbenzidine substrate was added to each well and incubated the plates for another 10 min in the dark, again at room temperature. The reaction was stopped by adding 100 μl of stop solution. The wavelength of absorbance was at 450 nm and results were expressed in pg/ml.

[5] = test system: CD45; assay: IHC analysis of CD45 in M5 tumors; assay type: in vivo, BALB/c nude mice; settings: IHC staining, FIGS. 11A and 11B
[6] = test system: CD44; assay: IHC analysis of CD44 in M5 tumors; assay type: in vivo, BALB/c nude mice; settings: relative to the control group
Method: as §1

[7] = test system: mTOR; assay: Western blot of mTOR in M5 tumors; assay type: in vivo, BALB/c nude mice; settings: FIG. 7A
[8] = test system: S6K1; assay: Western blot of S6K1 in M5 tumors; assay type: in vivo, BALB/c nude mice; settings: FIG. 7A

SMILES	TGF-β expression reduction [1]	Tumor mass [2] [g]	Tumor mass reduction (%) [2] [%]	IL-1β activity reduction [3] [%]	serum IL-6 expression reduction [4] [%]	CD45 activity, times higher than the control group [5] [times]	CD44 expression reduction [6]	expression of mTOR [7]	expression of S6K1 [8]
N.N.[Cl][Pt][Cl] [Cisplatin, cisplatin, reference compound]	about 26.6%	1.37 ± 0.25	48.7	29.7	62.8	1.4	about 40.9%	–	–
Cc1ccc(S(N)(=O)=O)cc1 [PTS, p-Toluenesulfonamide]	~23.3%	1.48 ± 0.33	44.2	26.5	57.5	1.3	~34.4%	downregulated	downregulated
